# From PubChem BioAssay (NCI)
# Several values for one entry are separate records, joined by “and”; a condition that tells them apart may be missing. Equal values may be shown once.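 Values below derive from 48-hour exposures of cells grown in 96-well plates, with endpoints linearly interpolated between the two concentrations bracketing the appropriate inhibition level. GI50: concentration for 50% inhibition of growth. TGI denotes the concentration required for complete inhibition of growth.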
# Legend:
# Experiment in all cases: NCI tumour cell line growth inhibition, 48 h
# [1] = test system: SR leukemia
# [2] = test system: RXF 393 renal
# [3] = test system: HOP-92 NSCLC
# [4] = test system: DMS 114 small cell lung
# [5] = test system: MOLT-4 leukemia
# [6] = test system: OVCAR-4 ovarian
# [7] = test system: RPMI-8226 leukemia
# [8] = test system: UO-31 renal
# [9] = test system: TK-10 renal
# [10] = test system: KM12 colon
# [11] = test system: A549 NSCLC
# [12] = test system: ACHN renal
# [13] = test system: CAKI-1 renal
# [14] = test system: SK-MEL-5 melanoma
# [15] = test system: SK-MEL-28 melanoma
# [16] = test system: DLD-1 colon
# [17] = test system: KM20L2 colon
# [18] = test system: HCT-116 colon
# [19] = test system: SNB-75 CNS
# [20] = test system: HT29 colon
# [21] = test system: M14 melanoma
# [22] = test system: NCI-H23 lung
# [23] = test system: UACC-257 melanoma
# [24] = test system: EKVX NSCLC
# [25] = test system: HCC-2998 colon
# [26] = test system: NCI-H460 lung
# [27] = test system: CCRF-CEM leukemia
# [28] = test system: SF-539 CNS
# [29] = test system: SW-620 colon
# [30] = test system: COLO 205 colon
# [31] = test system: OVCAR-8 ovarian
# [32] = test system: SF-268 CNS
# [33] = test system: OVCAR-3 ovarian
# [34] = test system: K-562 leukemia
# [35] = test system: UACC-62 melanoma
# [36] = test system: NCI-H226 lung
# [37] = test system: M19-MEL melanoma
# [38] = test system: SK-MEL-2 melanoma
# [39] = test system: SF-295 CNS
# [40] = test system: IGROV1 ovarian
# [41] = test system: LXFL 529 NSCLC
# [42] = test system: SNB-19 CNS
# [43] = test system: HL-60(TB) leukemia
# [44] = test system: HOP-62 NSCLC
# [45] = test system: HCT-15 colon
# [46] = test system: OVCAR-5 ovarian
# [47] = test system: HS 578T breast
# [48] = test system: MDA-MB-231 breast
# [49] = test system: 786-0 renal
# [50] = test system: MDA-N
# [51] = test system: T-47D breast
# [52] = test system: U251 CNS
# [53] = test system: MALME-3M melanoma
# [54] = test system: PC-3 prostate
# [55] = test system: MCF7 breast
# [56] = test system: NCI-H522 lung
# [57] = test system: SN12C renal
# [58] = test system: NCI/ADR-RES ovarian
# [59] = test system: LOX IMVI melanoma
# [60] = test system: DU-145 prostate
# [61] = test system: MDA-MB-435
# [62] = test system: SK-OV-3 ovarian
# [63] = test system: A498 renal
# [64] = test system: BT-549 breast
structure (smiles),measurement,setting,value
CC(=O)OCC1OC(n2c(=S)n(-c3ccc(C)cc3)c(=O)c3ccccc32)C(OC(C)=O)C(OC(C)=O)C1OC(C)=O (centres undefined),TGI,[1],> 100 µM
same,TGI,[2],> 100 µM
same,TGI,[3],> 100 µM
same,GI50,[4],41.9 µM and 90 µM
same,TGI,[4],> 100 µM
same,TGI,[5],> 100 µM
same,GI50,[6],17 µM and 45.1 µM
same,TGI,[6],83.9 µM and > 100 µM
same,TGI,[7],> 100 µM
same,TGI,[8],> 100 µM
same,TGI,[9],> 100 µM
COC(=O)C1=C(C)N2CCOC2(C)C(C(=O)OC)C1c1ccc[nH]1 (centres undefined),TGI,[10],> 100 µM
same,TGI,[11],> 100 µM
same,TGI,[12],> 100 µM
same,TGI,[13],> 100 µM
same,TGI,[14],> 100 µM
same,TGI,[15],> 100 µM
same,TGI,[16],> 100 µM
same,TGI,[1],> 100 µM
same,TGI,[17],> 100 µM
same,TGI,[2],> 100 µM
same,TGI,[3],> 100 µM
same,TGI,[18],> 100 µM
same,TGI,[19],82.9 µM
same,TGI,[20],> 100 µM
same,TGI,[4],> 100 µM
same,TGI,[5],> 100 µM
same,TGI,[21],> 100 µM
same,TGI,[22],> 100 µM
same,TGI,[23],> 100 µM
same,TGI,[24],> 100 µM
same,TGI,[25],> 100 µM
same,TGI,[26],> 100 µM
same,TGI,[27],> 100 µM
same,TGI,[28],> 100 µM
same,TGI,[29],> 100 µM
same,TGI,[30],> 100 µM
same,TGI,[6],> 100 µM
same,TGI,[31],> 100 µM
same,TGI,[32],> 100 µM
same,TGI,[33],> 100 µM
same,TGI,[34],> 100 µM
same,TGI,[35],> 100 µM
same,TGI,[36],> 100 µM
same,TGI,[37],> 100 µM
same,TGI,[7],> 100 µM
same,TGI,[38],> 100 µM
same,TGI,[39],> 100 µM
same,TGI,[40],> 100 µM
same,TGI,[8],> 100 µM
same,TGI,[41],> 100 µM
same,TGI,[42],> 100 µM
same,TGI,[9],> 100 µM
same,TGI,[43],> 100 µM
same,TGI,[44],> 100 µM
NC(N)=NS(=O)(=O)c1ccc(NC(=O)c2cccc3c(NNc4ccc(C(=O)O)cc4)c4ccccc4nc23)cc1,TGI,[10],> 100 µM
same,TGI,[11],> 100 µM
same,TGI,[45],> 100 µM
same,TGI,[12],> 100 µM
same,TGI,[46],> 100 µM
same,TGI,[13],> 100 µM
same,TGI,[14],> 100 µM
same,TGI,[15],> 100 µM
same,TGI,[1],> 100 µM
same,TGI,[47],> 100 µM
same,TGI,[48],> 100 µM
same,TGI,[2],> 100 µM
same,TGI,[3],> 100 µM
same,TGI,[18],> 100 µM
same,TGI,[19],> 100 µM
same,TGI,[49],> 100 µM
same,TGI,[20],> 100 µM
same,TGI,[5],> 100 µM
same,TGI,[50],> 100 µM
same,TGI,[21],> 100 µM
same,TGI,[51],> 100 µM
same,TGI,[22],> 100 µM
same,TGI,[52],> 100 µM
same,TGI,[53],> 100 µM
same,TGI,[23],> 100 µM
same,TGI,[24],> 100 µM
same,TGI,[25],> 100 µM
same,TGI,[26],> 100 µM
same,TGI,[27],85.2 µM
same,TGI,[28],> 100 µM
same,TGI,[29],> 100 µM
same,TGI,[30],> 100 µM
same,TGI,[6],> 100 µM
same,TGI,[54],> 100 µM
same,TGI,[55],> 100 µM
same,TGI,[31],> 100 µM
same,TGI,[56],> 100 µM
same,TGI,[32],> 100 µM
same,TGI,[33],> 100 µM
same,TGI,[34],> 100 µM
same,TGI,[35],> 100 µM
same,TGI,[57],> 100 µM
same,TGI,[58],> 100 µM
same,TGI,[36],> 100 µM
same,TGI,[59],> 100 µM
same,TGI,[60],> 100 µM
same,TGI,[7],> 100 µM
same,TGI,[61],> 100 µM
same,TGI,[38],95.7 µM
same,TGI,[39],> 100 µM
same,TGI,[62],> 100 µM
same,TGI,[40],> 100 µM
same,TGI,[8],> 100 µM
same,TGI,[63],98.2 µM
same,TGI,[42],> 100 µM
same,TGI,[9],> 100 µM
same,TGI,[64],> 100 µM
same,TGI,[43],> 100 µM
same,TGI,[44],> 100 µM
